Laboratory results taken from patent US20100167933A1, “Piperazine Compounds With Herbicidal Action” (priority 2007, published 2010).

Legend:
[1] = tested on: APESV (Apera spica-venti, windgrass); assay: greenhouse experiment, pre-emergence herbicidal activity against APESV; format: in vivo; conditions: pre-emergence method, scale from 0 to 100
Source text: The seeds of the test plants were sown separately for each species. For the pre-emergence treatment, the active ingredients, which had been suspended or emulsified in water, were applied directly after sowing by means of finely distributing nozzles. The containers were irrigated gently to promote germination and growth and subsequently covered with transparent plastic hoods until the plants had rooted. This cover caused uniform germination of the test plants, unless this has been impaired by the active ingredients. Depending on the species, the plants were kept at 10-25° C. or 20-35° C. The test period extended over 2 to 4 weeks. During this time, the plants were tended, and their response to the individual treatments was evaluated. Evaluation was carried out using a scale from 0 to 100. 100 means no emergence of the plants, or complete destruction of at least the aerial moieties, and 0 means no damage, or normal course of growth. A good herbicidal activity is given at values of at least 70 and a very good herbicidal activity is given at values of at least 85. The plants used in the greenhouse experiments belonged to the following species: [table]

## CN1C(=O)C2(CC2c2ccccc2)N(C)C(=O)/C1=C/c1ccccc1C#N (single isomer, unassigned) [Example 32]
other
  melting point: 190 °C

## CN1C(=O)C2(CC2c2ccccc2)N(C)C(=O)/C1=C/c1cccnc1C#N (single isomer, unassigned) [Example 34]
other
  melting point: 224 °C

## CSC1(Cc2ccccc2)C(=O)N(C)C(=Cc2ccccc2C#N)C(=O)N1C (stereo not shown) [1a/1b, 2-(5-Benzyl-1,4-dimethyl-5-methylsulfanyl-3,6-dioxopiperazin-2-ylidenemethyl)benzonitrile]
[1]; application rate 0.5 kg/ha
  herbicidal activity against APESV: good to very good

## C=CCC1(Cc2ccccc2)C(=O)N(C)/C(=C\c2ccccc2C#N)C(=O)N1C (stereo not shown) [Example 2, 2-(5-Benzyl-1,4-dimethyl-5-allyl-3,6-dioxo-piperazin-(Z)-2-ylidenemethyl)-benzonitrile]
[1]; application rate 1.0 kg/ha
  herbicidal activity against APESV: very good (a very good herbicidal activity is given at values of at least 85)

## CN1C(=O)C(Cc2ccccc2)(C(=O)C(F)(F)F)N(C)C(=O)/C1=C/c1ccccc1C#N (stereo not shown) [Example 4, 2-[5-Trifluoroacetyl-5-benzyl-1,4-dimethyl-3,6-dioxopiperazin-(Z)-2-ylidenemethyl]benzonitrile]
[1]; application rate 0.5 kg/ha
  herbicidal activity against APESV: good to very good

## CN1C(=O)c2cc3c([N+](=O)[O-])ccc(F)c3n2C(=O)C1(C)Cc1ccccc1 (stereo not shown) [Example 23]
other
  melting point: 170 to 172 °C

## CN1C(=O)c2cc3cccnc3n2C(=O)C1(C)Cc1ccccc1 (stereo not shown) [Example 24]
other
  melting point: 180 °C

## CN1C(=O)C2(CC2c2ccccc2)N(C)C(=O)/C1=C/c1ccccc1[N+](=O)[O-] (stereo not shown) [Example 30, 6-[1-(2-Nitrophenyl)-meth-(Z)-ylidene]-4,7-dimethyl-1-phenyl-4,7-diazaspiro[2.5]octane-5,8-dione]
other
  melting point: 145 °C

## CN1C(=O)C2(CC2c2ccccc2)N(C)C(=O)/C1=C/c1ccccc1Br (stereo not shown) [Example 31]
other
  melting point: 78 °C

## CN1C(=O)C2(CC2c2ccccc2)N(C)C(=O)/C1=C/c1cccnc1Cl (stereo not shown) [Example 33]
other
  melting point: 169 °C
